In patent US5494893A, “Stylostatin 2” (Arizona Board of Regents, a body corporate acting on behalf …, priority 1994, dated 1996):
Values after ≈ are worked out from the molar mass of the structure shown. Where a SMILES comes first, the peptide text is derived from it.

What was measured:
[1] = system: OVCAR 3; experiment: OVCAR 3 human cancer cell growth inhibition; assay type: cell-based; details: OVCAR 3 cell line
From the text: (§1) Current research in the control of cancer in the United States is coordinated by the National Cancer Institute (NCI). To determine whether a substance has anti-cancer properties, the NCI has established a systematic protocol. This protocol, which involves the testing of a substance against a standard cell line panel containing 60 human tumor cell lines, has been verified and has been accepted in scientific circles. The protocol, and the established statistical means for analyzing the results obtained by the standardized testing are fully described in the literature. See: Boyd, Dr. Michael R., Principles & Practice of Oncology, PPO Updates, Volume 3, Number 10, Oct. […]
(§2) Each drug is tested at five (5) doses: 100--10--1--0.1--0.01 μg/ml. Percent Growths are calculated for each dose. […]
(§3) At the start of an experiment, cells from the in vitro cell cultures are inoculated into the appropriate tubes or microtiter plates. One set of control tubes/plates is immediately counted to determine the number of cells at the start of the experiment. This is the "baseline count", or "Tzero reading". At the end of the experiment (48 hours later), a second set of control tubes/plates is analyzed to determine the "Control Growth" value. The growth (or death) of cells relative to the initial quantity of cells is used to define the "Percent of Growth".

[2] = system: U.S. National Cancer Institute panel of 60 human cancer cell lines; experiment: NCI panel of 60 human cancer cell lines, growth inhibition; assay type: cell-based; details: NCI 60 cell line panel, quadruplicate tests, average over panel, 48 hours; read-out: overall panel-averaged GI50 concentration
From the text: as §1, §2, §3

[3] = system: murine P388 lymphocytic leukemia (PS system) cell line; details: earlier reported work (J. Org. Chem. 1992); cited from earlier work

Compound | GI50 [1] [µg/mL] | GI50 [2] [µM] | P388 (PS system) cell line inhibition [3]
CC[C@H](C)[C@@H]1NC(=O)[C@H](CC(C)C)NC(=O)[C@@H]2CCCN2C(=O)[C@H]([C@@H](C)CC)NC(=O)[C@@H]2CCCN2C(=O)[C@H](CO)NC(=O)[C@H](Cc2ccccc2)NC1=O [stylostatin 2, cyclo (Pro-Leu-Ile-Phe-Ser-Pro-Ile)] (cyclo(FSPIPLI)) | 3.7 (≈ 4.82 µM) | 6.2 | 
cyclo (Pro-Phe-Asn-Ser-Leu-Ala-Ile) (PFNSLAI; head-to-tail cyclic; printed: Pro-Phe-Asn-Ser-Leu-Ala-Ile) [stylostatin 1, cycloheptapeptide earlier isolated from the same Stylotella sp. sponge] |  |  | inhibitor
